System: 324938-238-R-J1-PDC complex spheroids viability
Assay: Anticancer human tumor 324938-238-R-J1-PDC patient-derived bladder carcinoma cell line growth inhibition [CLK]
Settings: for IC50: curve of first compound; for viability, T/C: stronger effect = lower value
How it was run: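 Patient-derived tumor cells grown as complex spheroids with HUVEC endothelial cells and mesenchymal stem cells, treated with drug combinations. Concentrations descend in half-log steps from near clinical Cmax, or from 10 microM if Cmax unknown.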
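Also: viability read after seven days of drug exposure.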
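For viability, T/C in this document: 100% = DMSO vehicle control wells.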

NC(=O)C(=Cn1cnc(-c2cc(C(F)(F)F)cc(C(F)(F)F)c2)n1)c1cncnc1 + CNC(=O)c1ccc(Nc2nc(OC3CCCC3)c3c(-c4ccc5nc(C)oc5c4)c[nH]c3n2)c(OC)c1
IC50 (second compound 0.0316 µM): 60.8 nM
IC50 (second compound 0.1 µM): < 9.49 nM
IC50 (second compound 0.316 µM): < 9.49 nM
IC50 (second compound 1 µM): < 9.49 nM
IC50 (second compound 3.16 µM): < 9.49 nM
IC50 (second compound 10 µM): < 9.49 nM
viability, T/C (second compound 0.0316 µM, first compound 0.00949 µM): 67.1%
viability, T/C (second compound 0.0316 µM, first compound 0.03 µM): 74.3%
viability, T/C (second compound 0.0316 µM, first compound 0.0949 µM): 36.9%
viability, T/C (second compound 0.0316 µM, first compound 0.3 µM): 14.3%
viability, T/C (second compound 0.0316 µM, first compound 0.949 µM): 8.38%
viability, T/C (second compound 0.0316 µM, first compound 3 µM): 3.32%
viability, T/C (second compound 0.1 µM, first compound 0.00949 µM): 21.3%
viability, T/C (second compound 0.1 µM, first compound 0.03 µM): 24.6%
viability, T/C (second compound 0.1 µM, first compound 0.0949 µM): 16.9%
viability, T/C (second compound 0.1 µM, first compound 0.3 µM): 12.7%
viability, T/C (second compound 0.1 µM, first compound 0.949 µM): 8.37%
viability, T/C (second compound 0.1 µM, first compound 3 µM): 3.77%
viability, T/C (second compound 0.316 µM, first compound 0.00949 µM): 15.7%
viability, T/C (second compound 0.316 µM, first compound 0.03 µM): 15.5%
viability, T/C (second compound 0.316 µM, first compound 0.0949 µM): 13.7%
viability, T/C (second compound 0.316 µM, first compound 0.3 µM): 7.83%
viability, T/C (second compound 0.316 µM, first compound 0.949 µM): 3.16%
viability, T/C (second compound 0.316 µM, first compound 3 µM): 2.69%
viability, T/C (second compound 1 µM, first compound 0.00949 µM): 12.9%
viability, T/C (second compound 1 µM, first compound 0.03 µM): 12.8%
viability, T/C (second compound 1 µM, first compound 0.0949 µM): 9.03%
viability, T/C (second compound 1 µM, first compound 0.3 µM): 5.74%
viability, T/C (second compound 1 µM, first compound 0.949 µM): 3.19%
viability, T/C (second compound 1 µM, first compound 3 µM): 1%
viability, T/C (second compound 3.16 µM, first compound 0.00949 µM): 16.2%
viability, T/C (second compound 3.16 µM, first compound 0.03 µM): 14.1%
viability, T/C (second compound 3.16 µM, first compound 0.0949 µM): 8.67%
viability, T/C (second compound 3.16 µM, first compound 0.3 µM): 4.86%
viability, T/C (second compound 3.16 µM, first compound 0.949 µM): 2.59%
viability, T/C (second compound 3.16 µM, first compound 3 µM): 1.1%
viability, T/C (second compound 10 µM, first compound 0.00949 µM): 14.4%
viability, T/C (second compound 10 µM, first compound 0.03 µM): 13%
viability, T/C (second compound 10 µM, first compound 0.0949 µM): 9.72%
viability, T/C (second compound 10 µM, first compound 0.3 µM): 5.02%
viability, T/C (second compound 10 µM, first compound 0.949 µM): 2.24%
viability, T/C (second compound 10 µM, first compound 3 µM): 0.98%
